From patent publication US9096593B2, “Compounds and methods for kinase modulation, and indications therefor” (Plexxikon Inc., priority 2009, dated 2015)

How the values were obtained:
[1] = Turbidity assay of relative solubility in aqueous buffers; format: physicochemical; conditions: for turbidity threshold (L, M, H) 1.4: pH 1.4 as headed (method: SGF pH 1.5); for turbidity threshold (L, M, H) 4.5: pH 4.5 (SIF); for turbidity threshold (L, M, H) 6.8: pH 6.8 (SIF); for turbidity threshold (L, M, H) 7.4: pH 7.4 (HEPES)
Procedure, shortened: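 Turbidity was read spectrophotometrically at 490, 535 and 650 nm, and the endpoint is the concentration where OD passes 0.01, as the mean of the three wavelengths. Compounds came from 25 mM DMSO stock in 1:1 serial dilutions, added to HEPES pH 7.4, SIF pH 6.8 or 4.5 (0.05M NaH2PO4), or SGF pH 1.5 (0.5M NaCl).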

Flt-3 kinase = Flt-3 kinase (Homo sapiens (Human), UniProt P36888); test: Flt-3 kinase biochemical activity assay (AlphaScreen, biotin-(E4Y)10 phosphorylation); conditions: 100 μM ATP
Description: In one assay the biochemical activity IC50 values are determined with respect to inhibition of Flt-3 kinase activity, where inhibition of phosphorylation of a peptide substrate is measured as a function of compound concentration. Compounds to be tested, dissolved in DMSO (1 μL), are added to a white 384-well plate (Costar #3705). Working stocks of Flt-3 kinase (Invitrogen), biotin-(E4Y)10 substrate (Upstate Biotech, Cat#12-440), and ATP (Sigma, Cat#A-3377) are prepared in 25 mM Hepes pH 7.5, 5 mM MgCl2, 5 mM MnCl2, 1 mM DTT, and 0.01% Tween-20. All components are added to the 384-well plate for a final concentration of 1 ng/well Flt-3, 30 nM biotin-(E4Y)10 and 100 μM ATP in a volume of 20 μL. Each sample is at 5% DMSO. The plate is then incubated for 1 hour at room temperature. Just before use, working stocks of donor and acceptor beads from the AlphaScreen PY20 Detection Kit (PerkinElmer, Cat#676601M) are prepared in 25 mM Hepes pH 7.5, pH 7.4, 100 mM EDTA. 0.3% BSA. To stop the reaction, the plate is uncovered in the dark and 5 μL of Donor Beads solution (Streptavidin beads) is added to each well. The plate is incubated at room temperature for 20 minutes. Five microliters of Acceptor Beads solution (PY20 coated beads) are then added to each well. The final concentration of each bead is 10 μg/mL. The plates are incubated at room temperature for 60 minutes. Fluorescence signal is recorded on the Envision reader. Phosphorylated substrate results in binding of the PY20 antibody and association of the donor and acceptor beads such that signal correlates with kinase activity. The signal vs. compound concentration is used to determine the IC50.

Sequence of Flt-3 kinase (P36888 27-993): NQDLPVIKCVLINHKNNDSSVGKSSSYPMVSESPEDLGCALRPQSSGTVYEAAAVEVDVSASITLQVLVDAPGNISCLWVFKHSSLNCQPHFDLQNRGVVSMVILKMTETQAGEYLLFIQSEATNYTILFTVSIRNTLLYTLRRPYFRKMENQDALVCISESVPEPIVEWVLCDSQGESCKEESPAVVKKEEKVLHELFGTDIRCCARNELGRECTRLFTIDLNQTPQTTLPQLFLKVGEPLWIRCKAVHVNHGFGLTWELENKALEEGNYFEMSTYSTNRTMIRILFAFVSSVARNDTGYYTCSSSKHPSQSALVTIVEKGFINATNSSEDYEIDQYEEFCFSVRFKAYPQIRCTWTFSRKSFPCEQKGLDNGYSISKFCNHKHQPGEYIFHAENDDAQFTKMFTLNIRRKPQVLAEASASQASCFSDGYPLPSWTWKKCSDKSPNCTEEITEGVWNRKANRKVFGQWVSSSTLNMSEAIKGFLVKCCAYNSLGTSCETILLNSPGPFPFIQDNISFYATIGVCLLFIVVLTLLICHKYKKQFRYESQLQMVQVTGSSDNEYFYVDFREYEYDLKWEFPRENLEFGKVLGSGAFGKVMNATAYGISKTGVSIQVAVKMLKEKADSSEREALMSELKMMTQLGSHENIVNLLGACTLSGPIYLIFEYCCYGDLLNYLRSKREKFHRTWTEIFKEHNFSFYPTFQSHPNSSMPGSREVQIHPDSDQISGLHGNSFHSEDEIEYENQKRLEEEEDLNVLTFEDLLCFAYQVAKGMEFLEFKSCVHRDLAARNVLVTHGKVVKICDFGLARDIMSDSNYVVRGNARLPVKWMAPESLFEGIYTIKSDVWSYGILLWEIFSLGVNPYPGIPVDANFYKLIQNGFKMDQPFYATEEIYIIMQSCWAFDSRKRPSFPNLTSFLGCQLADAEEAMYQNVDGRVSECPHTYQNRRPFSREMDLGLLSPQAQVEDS

Row | SMILES | turbidity threshold (L, M, H) 1.4 [1] | turbidity threshold (L, M, H) 4.5 [1] | turbidity threshold (L, M, H) 6.8 [1] | turbidity threshold (L, M, H) 7.4 [1] | IC50 (Flt-3 kinase) [µM]
1 | Clc1cnc2[nH]cc(Cc3ccc(NCc4ccc(Cl)nc4)nc3)c2c1 [Compound P-2003] | H (high solubility if the threshold concentration is >250 μM) | M (moderate solubility if the threshold concentration is 31.3 μM to 250 μM) | L (low solubility if the threshold concentration is <31.3 μM) | L (low solubility if the threshold concentration is <31.3 μM) | < 0.1
2 | Fc1ccc(CNc2ccc(Cc3c[nH]c4ncc(Cl)cc34)cn2)cn1 [Compound P-2004, [5-(5-chloro-1H-pyrrolo[2,3-b]pyridin-3-ylmethyl)-pyridin-2-yl]-(6-fluoro-pyridin-3-ylmethyl)-amine] | H (high solubility if the threshold concentration is >250 μM) | M (moderate solubility if the threshold concentration is 31.3 μM to 250 μM) | M (moderate solubility if the threshold concentration is 31.3 μM to 250 μM) | M (moderate solubility if the threshold concentration is 31.3 μM to 250 μM) | < 0.1
3 | Cc1cnc2[nH]cc(Cc3ccc(NCc4ccc(C(F)(F)F)nc4)nc3)c2c1 [Compound P-2019, [5-(5-Methyl-1H-pyrrolo[2,3-b]pyridin-3-ylmethyl)-pyridin-2-yl]-(6-trifluoromethyl-pyridin-3-ylmethyl)-amine] | H (high solubility if the threshold concentration is >250 μM) | M (moderate solubility if the threshold concentration is 31.3 μM to 250 μM) | M (moderate solubility if the threshold concentration is 31.3 μM to 250 μM) | L (low solubility if the threshold concentration is <31.3 μM) | < 0.1
4 | COc1ccc(CNc2ccc(Cc3c[nH]c4ncc(C)cc34)c(F)n2)cn1 [Compound P-2029, [6-Fluoro-5-(5-methyl-1H-pyrrolo[2,3-b]pyridin-3-ylmethyl)-pyridin-2-yl]-(6-methoxy-pyridin-3-ylmethyl)-amine] | H (high solubility if the threshold concentration is >250 μM) | M (moderate solubility if the threshold concentration is 31.3 μM to 250 μM) | M (moderate solubility if the threshold concentration is 31.3 μM to 250 μM) | M (moderate solubility if the threshold concentration is 31.3 μM to 250 μM) | < 0.1
5 | COc1cnc2[nH]cc(Cc3ccc(NCc4ccc(OC)nc4)nc3F)c2c1 [Compound P-2030, [6-Fluoro-5-(5-methoxy-1H-pyrrolo[2,3-b]pyridin-3-ylmethyl)-pyridin-2-yl]-(6-methoxy-pyridin-3-ylmethyl)-amine] | H (high solubility if the threshold concentration is >250 μM) | M (moderate solubility if the threshold concentration is 31.3 μM to 250 μM) | M (moderate solubility if the threshold concentration is 31.3 μM to 250 μM) | L (low solubility if the threshold concentration is <31.3 μM) | < 0.1
6 | Cc1cnc2[nH]cc(Cc3ccc(NCc4ccc(C(F)(F)F)nc4)nc3F)c2c1 [Compound P-2031, [6-Fluoro-5-(5-methyl-1H-pyrrolo[2,3-b]pyridin-3-ylmethyl)-pyridin-2-yl]-(6-trifluoromethyl-pyridin-3-ylmethyl)-amine] | M (moderate solubility if the threshold concentration is 31.3 μM to 250 μM) | L (low solubility if the threshold concentration is <31.3 μM) | L (low solubility if the threshold concentration is <31.3 μM) | L (low solubility if the threshold concentration is <31.3 μM) | < 0.1
7 | COc1cnc2[nH]cc(Cc3ccc(NCc4ccc(Cl)cc4)nc3F)c2c1 [Compound P-2032, (4-Chloro-benzyl)-[6-fluoro-5-(5-methoxy-1H-pyrrolo[2,3-b]pyridin-3-ylmethyl)-pyridin-2-yl]-amine] | M (moderate solubility if the threshold concentration is 31.3 μM to 250 μM) | L (low solubility if the threshold concentration is <31.3 μM) | L (low solubility if the threshold concentration is <31.3 μM) | L (low solubility if the threshold concentration is <31.3 μM) | < 0.1
8 | COc1cnc2[nH]cc(Cc3ccc(NCc4ccccc4Cl)nc3F)c2c1 [Compound P-2034, (2-chloro-benzyl)-[6-fluoro-5-(5-methoxy-1H-pyrrolo[2,3-b]pyridin-3-ylmethyl)-pyridin-2-yl]-amine] |  |  |  |  | < 0.1
9 | COc1ccnc2[nH]cc(Cc3ccc(NCc4ccc(Cl)cc4)nc3F)c12 [Compound P-2037, (4-Chloro-benzyl)-[6-fluoro-5-(4-methoxy-1H-pyrrolo[2,3-b]pyridin-3-ylmethyl)-pyridin-2-yl]-amine] | M (moderate solubility if the threshold concentration is 31.3 μM to 250 μM) | L (low solubility if the threshold concentration is <31.3 μM) | L (low solubility if the threshold concentration is <31.3 μM) | L (low solubility if the threshold concentration is <31.3 μM) | < 0.1
10 | Fc1nc(NCc2ccc(Cl)cn2)ccc1Cc1c[nH]c2ncccc12 [Compound P-2044, (5-Chloro-pyridin-2-ylmethyl)-[6-fluoro-5-(1H-pyrrolo[2,3-b]pyridin-3-ylmethyl)-pyridin-2-yl]-amine] |  |  |  |  | > 0.1
11 | Cc1cc(CNc2ccc(Cc3c[nH]c4ncc(Cl)cc34)c(F)n2)ccn1 [Compound P-2075, [5-(5-Chloro-1H-pyrrolo[2,3-b]pyridin-3-ylmethyl)-6-fluoro-pyridin-2-yl]-(2-methyl-pyridin-4-ylmethyl)-amine] | H (high solubility if the threshold concentration is >250 μM) | M (moderate solubility if the threshold concentration is 31.3 μM to 250 μM) | L (low solubility if the threshold concentration is <31.3 μM) | M (moderate solubility if the threshold concentration is 31.3 μM to 250 μM) | 
12 | Cc1cnc2[nH]cc(Cc3cnc(NCc4ccc(C(F)(F)F)nc4)c(F)c3)c2c1 [Compound P-2146, [3-Fluoro-5-(5-methyl-1H-pyrrolo[2,3-b]pyridin-3-ylmethyl)-pyridin-2-yl]-(6-trifluoromethyl-pyridin-3-ylmethyl)-amine] | H (high solubility if the threshold concentration is >250 μM) | M (moderate solubility if the threshold concentration is 31.3 μM to 250 μM) | M (moderate solubility if the threshold concentration is 31.3 μM to 250 μM) | L (low solubility if the threshold concentration is <31.3 μM) | 
13 | Fc1cc(Cc2c[nH]c3ncc(Cl)cc23)cnc1NCc1ccc(C(F)(F)F)nc1 [Compound P-2172, [5-(5-Chloro-1H-pyrrolo[2,3-b]pyridin-3-ylmethyl)-3-fluoro-pyridin-2-yl]-(6-trifluoromethyl-pyridin-3-ylmethyl)-amine] | H (high solubility if the threshold concentration is >250 μM) | L (low solubility if the threshold concentration is <31.3 μM) | L (low solubility if the threshold concentration is <31.3 μM) | L (low solubility if the threshold concentration is <31.3 μM) | 
14 | CCS(=O)(=O)Nc1ccccc1CNc1ccc(Cc2c[nH]c3ncc(C)cc23)c(F)n1 [Compound P-2198, Ethanesulfonic acid (2-{[6-fluoro-5-(5-methyl-1H-pyrrolo[2,3-b]pyridin-3-ylmethyl)-pyridin-2-ylamino]-methyl}-phenyl)-amide] | M (moderate solubility if the threshold concentration is 31.3 μM to 250 μM) | L (low solubility if the threshold concentration is <31.3 μM) | L (low solubility if the threshold concentration is <31.3 μM) | L (low solubility if the threshold concentration is <31.3 μM) | 
